The target of assay [1] is HCV NS3 protease genotype 3a (3A-1) (Hepatitis C virus genotype 3a, UniProt Q81258). Description: HCV NS3 protease time-resolved fluorescence (TRF) assay, genotype 3a. The format is biochemical. The conditions noted are these: Ki 3a. A digest of the protocol:
(§1)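 Time-resolved fluorescence, ex 340/em 615 nm, 400 μs delay; IC50 by four-parameter fit. Enzyme preincubated with compound 10 min, then TRF substrate 25 nM final added and reaction run 6 h at RT. Buffer HEPES pH 7.5 with NaCl, glycerol, Triton X-100, DTT, PEG 8000.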

Assay [2] has as its target T1, HCV genotype 1b (BK) NS3 modified enzyme with a R155K mutation (Hepatitis C virus genotype 1b, UniProt P26663, R1181K).
T1 construct: HCV genotype 1b (BK) NS3 modified enzyme
Description: HCV NS3 protease time-resolved fluorescence (TRF) assay, genotype 1b R155K. In kind it is biochemical. As to conditions: Ki 1b R155K. An outline of the steps: as §1

[3] abbreviates: genotype 1b (BK) NS3 R155K, single value.
Setting [4] is: first of two values printed in the cell (not explained).
Setting [5] is: second of two values printed in the cell (not explained).

Where a name gives a salt, the structure may show the parent alone.

Take `C=C[C@@H]1C[C@]1(NC(=O)[C@@H]1C[C@@H]2CN1C(=O)[C@H](C(C)(C)C)NC(=O)O[C@@H]1C[C@H]1CCCCCc1c(nc3ccccc3c1OCCCN(C)Cc1nc3cc(C)ccc3[nH]1)O2)C(=O)NS(=O)(=O)C1(C)CC1` [Example 191, (1aR,5S,8S,10R,22aR)-5-tert-butyl-N-[(1R,2S)-2-ethenyl-1-{[(1-methylcyclopropyl)sulfonyl]carbamoyl}cyclopropyl]-17-(3-{methyl[(5-methyl-1H-benzimidazol-2-yl)methyl]amino}propoxy)-3,6-dioxo-1,1a,3,4,5,6,9,10,18,19, 20,21,22,22a-tetradecahydro-8H-7,10-methano cyclopropa[18,19][1,10,3,6] dioxadiazacyclononadecino[11,12-b] quinoline-8-carboxamide]: the figures for the Ki in assay [1] and in assay [2] (setting [3]) were 1500 pM and 160 pM, respectively.

Consider `C=C[C@@H]1C[C@]1(NC(=O)[C@@H]1C[C@@H]2CN1C(=O)[C@H](C(C)(C)C)NC(=O)O[C@@H]1CCC[C@H]1CCCCCc1c(nc3ccccc3c1OCCN1CCCC1)O2)C(=O)NS(=O)(=O)C1(COC)CC1` [Example 102, (3aR,7S,10S,12R,24aR)-7-tert-butyl-N-[(1R,2S)-2-ethenyl-1-({[1-(methoxymethyl)cyclopropyl]sulfonyl}carbamoyl)cyclopropyl]-5,8-dioxo-19-[2-(pyrrolidin-1-yl)ethoxy]-1,2,3,3a, 5,6,7,8,11,12,20,21,22,23,24,24a-hexadecahydro-10H-9,12-methanocyclopenta[18,19] [1,10,3,6]dioxadiazacyclo-nonadecino[11,12-b]quinoline-10-carboxamide], for which the inhibition constant (Ki) in assay [1] was determined as 3200 pM; in assay [2] (setting [3]), 210 pM.

Take `C=C[C@@H]1C[C@]1(NC(=O)[C@@H]1C[C@@H]2CN1C(=O)[C@H](C1CCCCC1)NC(=O)O[C@@H]1C[C@H]1CCCCCc1c(nc3ccccc3c1OCCCN1CC(F)(F)C1)O2)C(=O)NS(=O)(=O)C1(C)CC1` [Example 249, (1aR,5S,8S,10R,22aR)-5-cyclohexyl-17-[3-(3,3-difluoroazetidin-1-yl)propoxy]-N-[(1R,2S)-2-ethenyl-1-{[(1-methylcyclopropyl)sulfonyl]carbamoyl}cyclopropyl]-3,6-dioxo-1,1a,3,4,5,6,9,10,18,19,20,21,22,22a-tetradecahydro-8H-7,10-methanocyclopropa[18,19][1,10,3,6]dioxadiazacyclononadecino[11,12-b]quinoline-8-carboxamide]: the Ki in assay [1] was 7550 pM; in assay [2] (setting [4]), 26 pM; in assay [2] (setting [5]), 500 pM.

On to `COc1c2c(nc3ccccc13)O[C@@H]1C[C@@H](C(=O)N[C@]3(C(=O)NS(=O)(=O)C4CC4)C[C@H]3C3CC3)N(C1)C(=O)[C@H](C1CCCC1)NC(=O)O[C@@H]1CCC[C@H]1CC/C=C/C2` [Example 13, (3aR,7S,10S,12R,21E,24aS)-7-cyclopentyl-N-[(1S,2R)-2-[(cyclopropylsulfonyl)carbamoyl]-1,1′-bi(cyclopropyl)-2-yl]-19-methoxy-5,8-dioxo-1,2,3,3a,5,6,7,8,11,12,20,23,24,24a-tetradecahydro-10H-9,12-methanocyclopenta[18,19][1,10,3,6] dioxadiazacyclononadecino[11,12-b]quinoline-10-carboxamide], for which the results for the Ki in assay [1] and in assay [2] (setting [3]) were 15000 pM and 930 pM, respectively.

For `C=C[C@@H]1C[C@]1(NC(=O)[C@@H]1C[C@@H]2CN1C(=O)[C@H](C(C)(C)C)NC(=O)O[C@@H]1CCC[C@H]1CC/C=C/Cc1c(nc3ccccc3c1OCCCOCCOC)O2)C(=O)NS(=O)(=O)C1(C)CC1` [Example 56, (3aR,7S,10S,12R,21E,24aS)-7-tert-butyl-N-[(1R,2S)-2-ethenyl-1-{[(1-methylcyclopropyl)sulfonyl]carbamoyl}cyclopropyl]-19-[3-(2-methoxyethoxy)propoxy]-5,8-dioxo-1,2,3,3a,5,6,7,8,11,12,20,23,24,24a-tetradecahydro-10H-9,12-methanocyclopenta[18,19][1,10,3,6]dioxadiazacyclononadecino[11,12-b] quinoline-10-carboxamide], the Ki in assay [1] stood at 950 pM; in assay [2] (setting [3]) it was 90 pM.

Regarding `C=C[C@@H]1C[C@]1(NC(=O)[C@@H]1C[C@@H]2CN1C(=O)[C@H](C(C)(C)C)NC(=O)O[C@]1(C)C[C@H]1CCCCCc1c(nc3ccccc3c1OCCN1CCOCC1)O2)C(=O)NS(=O)(=O)C1CC1` [Example 100, (1aR,5S,8S,10R,22aR)-5-tert-butyl-N-{(1R,2S)-1-[(cyclopropylsulfonyl)carbamoyl]-2-ethenylcyclopropyl}-1a-methyl-17-[2-(morpholin-4-yl)ethoxy]-3,6-dioxo-1,1a,3,4,5,6,9, 10,18,19,20,21,22,22a-tetradecahydro-8H-7,10-methanocyclopropa[18,19] [1,10,3,6]dioxadiazacyclonona decino[11,12-b]quinoline-8-carboxamide], the inhibitory constant (Ki) in assay [1] was 2000 pM; in assay [2] (setting [3]), 240 pM.

On to `C=C[C@@H]1C[C@]1(NC(=O)[C@@H]1C[C@@H]2CN1C(=O)[C@H](C(C)(C)C)NC(=O)O[C@@H]1C[C@H]1CCCCCc1c(nc3ccccc3c1OCCCN1CCC3(CCCC3)C1)O2)C(=O)NS(=O)(=O)C1(C)CC1` [Example 207, (1aR,5S,8S,10R,22aR)-17-[3-(2-azaspiro[4.4]non-2-yl)propoxy]-5-tert-butyl-N-[(1R,2S)-2-ethenyl-1-{[(1-methylcylcopropyl)sulfonyl]carbamoyl}cyclopropyl]-3,6-dioxo-1,1a,3,4,5,7,9, 10,18,19,20,21,22,22a-tetradecahydro-8H-7,10-methanocyclopropa[18,19][1,10,3,6] dioxadiazacyclononadecino[11,12-b] quinoline-8-carboxamide], for which the Ki came to 1300 pM in assay [1] and 110 pM in assay [2] (setting [3]).

Take `C=C[C@@H]1C[C@]1(NC(=O)[C@@H]1C[C@@H]2CN1C(=O)[C@H](C1CCCCC1)NC(=O)O[C@@H]1C[C@H]1CCCCCc1c(nc3ccccc3c1OCCCN1CC[C@@H](O)C1)O2)C(=O)NS(=O)(=O)C1(C)CC1` [Example 169, (1aR,5S,8S,10R,22aR)-5-cyclohexyl-N-[(1R,2S)-2-ethenyl-1-{[(1-methylcyclopropyl)sulfonyl]carbamoyl}cyclopropyl]-17-{3-[(3R)-3-hydroxypyrrolidin-1-yl]propoxy}-3,6-dioxo-1,1a,3,4,5,6,9,10, 18,19,20,21,22,22a-tetradeca hydro-8H-7,10-methanocyclopropa[18,19][1,10,3,6] dioxadiazacyclononadecino[11,12-b] quinoline-8-carboxamide]: the Ki in assay [1] turned out to be 750 pM; in assay [2] (setting [3]), 42 pM.

Regarding `C=C[C@@H]1C[C@]1(NC(=O)[C@@H]1C[C@@H]2CN1C(=O)[C@H](C(C)(C)C)NC(=O)O[C@@H]1C[C@H]1CCCCCc1c(nc3cc(C(C)C)ccc3c1OCCCN1CCCC1)O2)C(=O)NS(=O)(=O)C1(C)CC1` [Example 159, (1aR,5S,8S,10R,22aR)-5-tert-butyl-N-[(1R,2S)-2-ethenyl-1-{[(1-methylcyclopropyl)sulfonyl]carbamoyl}cyclopropyl]-3,6-dioxo-14-(propan-2-yl)-17-[3-(pyrrolidin-1-yl)propoxy]-1,1a,3,4,5,6,9, 10,18,19,20,21,22,22a-tetradecahydro-8H-7,10-methanocyclopropa[18,19] [1,10,3,6]dioxadiazacyclononadecino [11,12-b]quinoline-8-carboxamide], the Ki in assay [1] came out at 530 pM; in assay [2] (setting [3]), 50 pM.

Turning to `C=C[C@@H]1C[C@]1(NC(=O)[C@@H]1C[C@@H]2CN1C(=O)[C@H](C(C)(C)C)NC(=O)O[C@@H]1C[C@H]1CCCCCc1c(nc3ccccc3c1OCCN1CCOC(C)(C)C1)O2)C(=O)NS(=O)(=O)C1(C)CC1` [Example 173, (1aR,5S,8S,10R,22aR)-5-tert-butyl-17-[2-(2,2-dimethylmorpholin-4-yl)ethoxy]-N-[(1R,2S)-2-ethenyl-1-{[(1-methylcyclopropyl)sulfonyl]carbamoyl}cyclopropyl]-3,6-dioxo-1,1a,3,4,5,6,9,10,18,19,20,21, 22,22a-tetradecahydro-8H-7,10-methanocyclopropa[18,19][1,10,3,6] dioxadiazacyclononadecino[11,12-b] quinoline-8-carboxamide], the values for the Ki in assay [1] and in assay [2] (setting [3]) were 9500 pM and 340 pM, respectively.

With `C=C[C@@H]1C[C@]1(NC(=O)[C@@H]1C[C@@H]2CN1C(=O)[C@H](C1CCCCC1)NC(=O)O[C@@H]1C[C@H]1CCCCCc1c(nc3ccccc3c1OCCCNC1CC1)O2)C(=O)NS(=O)(=O)C1(C)CC1` [Example 241, N-(3-{[(1aR,5S,8S,10R,22aR)-5-cyclohexyl-8-{[(1R,2S)-2-ethenyl-1-{[(1-methylcyclopropyl)sulfonyl]carbamoyl}cyclopropyl]carbamoyl}-3,6-dioxo-1,1a,3,4,5,6,9,10,18,19,20,21,22,22a-tetradecahydro-8H-7,10-methanocyclopropa[18,19][1,10,3,6]dioxadiazacyclononadecino[11,12-b]quinolin-17-yl]oxy}propyl)cyclopropanaminium formate], the Ki in assay [1] was determined as 2790 pM; in assay [2] (setting [4]), 21 pM; in assay [2] (setting [5]), 162 pM.

Regarding `C=C[C@@H]1C[C@]1(NC(=O)[C@@H]1C[C@@H]2CN1C(=O)[C@H](C(C)(C)C)NC(=O)O[C@@H]1C[C@H]1CCCCCc1c(nc3ccccc3c1OCCCN(C)CC1CCC(=O)N1)O2)C(=O)NS(=O)(=O)C1(C)CC1` (stereo partly drawn) [Example 195, (1aR,5S,8S,10R,22aR)-5-tert-butyl-N-[(1R,2S)-2-ethenyl-1-{[(1-methylcyclopropyl)sulfonyl]carbamoyl}cyclopropyl]-17-(3-{methyl[(5-oxopyrrolidin-2-yl)methyl]amino}propoxy)-3,6-dioxo-1,1a,3,4,5,6,9,10,18, 19,20,21,22,22a-tetradecahydro-8H-7,10-methanocyclopropa[18,19][1,10,3,6] dioxadiazacyclononadecino[11,12-b] quinoline-8-carboxamide], the values for the Ki in assay [1] and in assay [2] (setting [3]) were 660 pM and 49 pM, respectively.

Source of the values: patent publication US9328138B2 (priority 2011, dated 2016).
